This is an account of results in patent publication US20080027042A1, “Novel Aminopyridine Derivatives Having Aurora a Selective Inhibitory Action” (priority 2004, published 2008).

The structures appear in SMILES notation. pIC50: −log10 of the molar value.

Series [1] relates to Human cervical cancer cells (HeLa S3). In words: Effect by combined use of drugs in cells (with paclitaxel), WST-8 method. The series is classed as cell-based. Particulars: three days; for inhibition at 0.03 µM: HeLa S3, compound 0.03 μM alone; for inhibition at 1 µM: HeLa S3, compound 1.0 μM alone; for inhibition at 0.3 µM: HeLa S3, compound 0.3 μM alone. The text has this: Method for Judging the Effect by Combined Use of Drugs in Cells
Fetal calf serum (FCS) was purchased from Moregate Biotech, DMEM medium from Invitrogen Corp., paclitaxel (tradename: Taxol) from Sigma-Aldrich, Inc., and WST-8 from Kishida Chemical Co., Ltd.
(§1) Human cervical cancer cells (HeLa S3) were obtained from the American Type Culture Collection (ATCC).
(§2) c) Method of Judging the Effect
Cells were suspended in a DMEM medium containing 10% FCS, and the cell suspension was dispensed to two 96-well plastic plates at a rate of 750 cells/100 microliters per well. The plates were incubated overnight in 5% CO2-95% air at 37° C. A drug was subjected to graded dilution in dimethylsulfoxide and flurther diluted with DMSO or with a DMEM medium containing 10% FCS and also containing 2 nM paclitaxel. Then, the dilutions were each dispensed to one of the plates on which cells had been disseminated, at a rate of 100 microliters per well. The final concentration of paclitaxel at this stage was 1 nM. Also, the concentrations in the case of sole administration of the compound according to the invention were 0.03, 0.1, 0.3, 1 and 3 μM. The plates were incubated for further three days in 5% CO2-95% air at 37° C. Cell growth after incubation was measured by the WST-8 method (H. Tominaga, et al., Anal. Commun., 36, 47-50 (1999)). Here, the WST-8 method refers to a method in which 20 microliters of a WST-8 reagent solution is added to each well, incubation is conducted at 37° C. for 45 minutes, the plate is stirred, and the amount of formazan produced is measured by a colorimetric method to determine the inhibitory rate of the drug. The growth inhibitory effects of paclitaxel and of the compound according to the invention were determined, with the value obtained in sole treatment of DMSO being defined as 0%.
(Tetrazolium dyes change colour on reduction, which living cells bring about.)

A further series concerns the target T1, Aurora A (Homo sapiens, UniProt O14965).
T1 construct: histidine tag (N); made in house; host or cells: Escherichia coli BL21-CodonPlus(DE3)-RIL
T1 sequence (O14965 1-403): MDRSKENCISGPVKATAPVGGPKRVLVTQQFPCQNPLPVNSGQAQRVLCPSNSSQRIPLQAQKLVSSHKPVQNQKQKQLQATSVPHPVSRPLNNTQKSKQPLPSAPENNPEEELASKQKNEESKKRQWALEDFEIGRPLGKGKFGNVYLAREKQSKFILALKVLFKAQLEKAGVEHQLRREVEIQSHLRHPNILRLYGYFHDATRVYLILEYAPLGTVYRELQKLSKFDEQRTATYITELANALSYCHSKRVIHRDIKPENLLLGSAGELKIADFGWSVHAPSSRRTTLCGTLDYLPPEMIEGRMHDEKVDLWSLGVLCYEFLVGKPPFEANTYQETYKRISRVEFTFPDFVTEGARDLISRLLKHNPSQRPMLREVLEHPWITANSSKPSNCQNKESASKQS
In words: Aurora A inhibitory action (33P-ATP kinase assay, Kemptide substrate). It counts as biochemical. The note with it: 20 μM ATP, 30° C., 20 minutes. An outline of the steps: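 His-tagged Aurora A expressed in E. coli, Ni-purified; reaction in 50 mM Tris pH 7.4, 15 mM Mg acetate, 0.2 mM EDTA with 100 μM Kemptide, 20 μM ATP plus [γ-33P]ATP, 20 min at 30 °C. Phosphopeptide captured on P81 filters and counted by scintillation; DMSO control.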

In the next series the target is T2, Aurora B (Homo sapiens, UniProt Q96GD4).
T2 construct: histidine tag (N); made in house; host or cells: Escherichia coli BL21-CodonPlus(DE3)-RIL
T2 sequence (Q96GD4 whole entry): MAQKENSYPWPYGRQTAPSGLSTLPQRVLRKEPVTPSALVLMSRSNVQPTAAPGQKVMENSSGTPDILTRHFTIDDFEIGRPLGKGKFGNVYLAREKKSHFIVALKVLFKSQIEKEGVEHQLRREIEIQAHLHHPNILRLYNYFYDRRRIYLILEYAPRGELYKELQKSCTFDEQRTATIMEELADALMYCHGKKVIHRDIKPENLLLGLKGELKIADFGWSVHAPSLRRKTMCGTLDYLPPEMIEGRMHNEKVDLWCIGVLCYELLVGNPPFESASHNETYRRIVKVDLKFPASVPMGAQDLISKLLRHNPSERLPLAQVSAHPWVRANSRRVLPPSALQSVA
In words: Aurora B inhibitory action (33P-ATP kinase assay, Kemptide substrate). The note with it: 100 μM ATP, 30° C., 20 minutes. The series is classed as biochemical. The essentials: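 His-tagged Aurora B expressed in E. coli, reacted with 100 μM Kemptide, 100 μM ATP plus [γ-33P]ATP in Tris pH 7.4, 15 mM Mg acetate, 0.2 mM EDTA, 30 °C, 20 min. Peptide captured on P81 filters for scintillation counting; compounds added from DMSO dilutions.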

In series [2] the test system is Human cervical cancer cells (HeLa S3). In words: Cell growth inhibitory effect, WST-8 method. It counts as cell-based. The note with it: 72 h, HeLa S3, three days incubation.
Text: Method for Judging the Pharmaceutical Effect Using cells
Fetal calf serum (FCS) was purchased from Moregate Biotech, and DMEM medium was purchased from Invitrogen Corp. WST-8 was purchased from Kishida Chemical Co., Ltd.
as §1, §2
Cells were suspended in a DMEM medium containing 10% FCS, and the cell suspension was dispensed to a 96-well plastic plate at a rate of 750 cells/l 00 microliters per well. The plate was incubated overnight in 5% CO2-95% air at 37° C. A drug was subjected to graded dilution in dimethylsulfoxide and further diluted with a DMEM medium containing 10% FCS. Then, the dilution was dispensed to the plate on which cells had been disseminated, at a rate of 100 microliters per well. The plate was incubated for further three days in 5% CO2-95% air at 37° C. Cell growth after incubation was measured by the WST-8 method (H. Tominaga, et al., Anal. Commun., 36, 47-50 (1999)). Here, the WST-8 method refers to a method in which 20 microliters of a WST-8 reagent solution is added to each well, incubation is conducted at 37° C. for 45 minutes, the plate is stirred, and the amount of formazan produced is measured by a calorimetric method to determine the inhibitory rate of the drug. The concentration for 50% growth inhibition (EC50, IM) of the compound was determined.

The mark [3] stands for this setting: HeLa S3, compound 0.03 μM + paclitaxel 1 nM.
[4] abbreviates: Homo sapiens, HeLa S3, 72 h, read-out: Cell growth inhibitory effect by sole administration of the compound of Example (%).
Where [5] appears, read: HeLa S3, compound 1.0 μM + paclitaxel 1 nM.
[6] abbreviates: HeLa S3, compound 0.3 μM + paclitaxel 1 nM.

What is called pIC50 is the negative decadic logarithm of the IC50, by convention in mol/L. For `COCc1cc(CN2CCN(C(=O)c3cccc(Cl)c3F)CC2)nc(Nc2nccs2)c1` [Example 95, 6-((4-(3-chloro-2-fluorobenzoyl)piperazin-1-yl)methyl)-4-(methoxymethyl)-N-thiazol-2-ylpyridin-2-amine], the “Cell growth inhibitory effect by combined administration of paclitaxel and the compound of Example (%)” value (from here on “Cell growth inhibitory effect … (%)”) in series [1] (setting [3]) came out at 73.5%. The inhibition at 0.03 µM in series [1] (setting [4]) came out at 0%. Besides, the results for the negative logarithm of the IC50 (pIC50) (against Aurora A; on Aurora B; in series [2]) were 9.23, 6.60 and 6.66, respectively.

Take `CN(C)C(=O)c1cc(CN2CCN(C(=O)c3cccc(Cl)c3F)CC2)nc(Nc2nccs2)c1.O=C(O)C(F)(F)F` [Example 86, 2-((4-(3-chloro-2-fluorobenzoyl)piperazin-1-yl)methyl)-N,N-dimethyl-6-(thiazol-2-ylamino)isonicotinamide trifluoroacetate]: in series [1] (setting [3]), the “Cell growth inhibitory effect … (%)” value worked out at 71.6%. Moreover, the inhibition at 0.03 µM in series [1] (setting [4]) was 6.2%. The pIC50 against Aurora A was 9.18; against Aurora B, 6.25; in series [2], 6.29.

`O=C(c1cccc(Cl)c1F)N1CCN(Cc2cncc(Nc3cc[nH]n3)n2)CC1` [Example 50, 6-((4-(3-chloro-2-fluorobenzoyl)piperazin-1-yl)methyl)-N-1H-pyrazol-3-ylpyrazin-2-amine]: the “Cell growth inhibitory effect … (%)” value in series [1] (setting [5]) is reported as 82.0%. Besides, the inhibition at 1 µM in series [1] (setting [4]) was found to be 6%. In addition, the pIC50 was 8.66 at Aurora A, 5.27 on Aurora B and 5.44 in series [2].

`O=C(c1cccc(C(F)(F)F)c1F)N1CCN(Cc2cccc(Nc3ncns3)n2)CC1` [Example 40, 6-((4-(2-fluoro-3-(trifluoromethyl)benzoyl)piperazin-1-yl)methyl)-N-1,2,4-thiadiazol-5-ylpyridin-2-amine]: the “Cell growth inhibitory effect … (%)” value in series [1] (setting [5]) stood at 76.9%. Also, the inhibition at 1 µM in series [1] (setting [4]) came to 6.5%. Also, the pIC50 was 9.00 at Aurora A, 5.72 against Aurora B and 5.19 in series [2].

On to `Cc1cc(Nc2cccc(CN3CCN(C(=O)c4cccc(C(F)(F)F)c4F)CC3)n2)n[nH]1` [Example 29, 6-((4-(2-fluoro-3-(trifluoromethyl)benzoyl)piperazin-1-yl)methyl)-N-(5-methyl-1H-pyrazol-3-yl)pyridin-2-amine], for which the “Cell growth inhibitory effect … (%)” value in series [1] (setting [6]) is 77.3%. Besides, the inhibition at 0.3 µM in series [1] (setting [4]) came to 0%. Moreover, the figures for the pIC50 (against Aurora A; at Aurora B; in series [2]) were 9.01, 6.23 and 5.48, respectively.

For the molecule `Cc1cc(Nc2cccc(CN3CCN(C(=O)c4cccc(Cl)c4F)CC3)n2)n[nH]1` [Example 25, 6-((4-(3-chloro-2-fluorobenzoyl)piperazin-1-yl)methyl)-N-(5-methyl-1H-pyrazol-3-yl)pyridin-2-amine], in series [1] (HeLa S3, compound 0.1 μM + paclitaxel 1 nM), the “Cell growth inhibitory effect … (%)” value is on record as 65.1%. In addition, the inhibition at 0.1 µM in series [1] (Homo sapiens, HeLa S3, 72 h, HeLa S3, compound 0.1 μM alone, read-out: Cell growth inhibitory effect by sole administration of the compound of Example (%)) was 0%. The pIC50 against Aurora A was 8.96; at Aurora B, 6.11; in series [2], 6.10.

In the case of `O=C(Cc1ccc(Cl)cc1)N1CCN(Cc2cccc(Nc3ncc(Cl)s3)n2)CC1.O=C(O)C(F)(F)F` [Example 77, 6-((4-((4-chlorophenyl)acetyl)piperazin-1-yl)methyl)-N-(5-chlorothiazol-2-yl)pyridin-2-amine trifluoroacetate], the “Cell growth inhibitory effect … (%)” value in series [1] (setting [6]) is reported as 51.8%. In addition, the inhibition at 0.3 µM in series [1] (setting [4]) is 2.2%. Also, the pIC50 is 8.39 on Aurora A, 5.89 at Aurora B and 5.80 in series [2].

On to `O=C(c1cccs1)N1CCN(Cc2cccc(Nc3ncc(Cl)s3)n2)CC1` [Example 66, 6-((4-(2-thienylcarbonyl)piperazin-1-yl)methyl)-N-(5-chlorothiazol-2-yl)pyridin-2-amine], for which, in series [1] (setting [5]), the “Cell growth inhibitory effect … (%)” value came out at 60.9%. For the same molecule, in series [1] (setting [4]), the inhibition at 1 µM was 7.2%. Further, the pIC50 against Aurora A was 8.47; at Aurora B, 6.60; in series [2] it was 5.54.

The term melting point denotes the temperature of the solid-liquid transition. Molecule `O=C(c1cccc(C(F)(F)F)c1F)N1CCN(Cc2cncc(Nc3cc[nH]n3)n2)CC1` [Example 44, 6-((4-(2-fluoro-3-(trifluoromethyl)benzoyl)piperazin-1-yl)methyl)-N-1H-pyrazol-3-ylpyrazin-2-amine] yielded a melting point of 160 to 163 °C. The “Cell growth inhibitory effect … (%)” value in series [1] (setting [6]) was 86.5%. In addition, in series [1] (setting [4]), the inhibition at 0.3 µM was 7.1%. The pIC50 against Aurora A is 9.05. The molecule also had a pIC50 at Aurora B of 5.96. This molecule had a pIC50 in series [2] of 5.62.
